Test results taken from ChEMBL document CHEMBL5291721, “A preclinical secondary pharmacology resource illuminates target-adverse drug reaction associations of marketed drugs” (Nat Commun, 2023).

Assays:
[1] = target: T1, Alpha-1A adrenergic receptor (Homo sapiens, UniProt P35348); format: functional, cell-based; note: assay procedure not described here
T1 sequence (P35348 whole entry): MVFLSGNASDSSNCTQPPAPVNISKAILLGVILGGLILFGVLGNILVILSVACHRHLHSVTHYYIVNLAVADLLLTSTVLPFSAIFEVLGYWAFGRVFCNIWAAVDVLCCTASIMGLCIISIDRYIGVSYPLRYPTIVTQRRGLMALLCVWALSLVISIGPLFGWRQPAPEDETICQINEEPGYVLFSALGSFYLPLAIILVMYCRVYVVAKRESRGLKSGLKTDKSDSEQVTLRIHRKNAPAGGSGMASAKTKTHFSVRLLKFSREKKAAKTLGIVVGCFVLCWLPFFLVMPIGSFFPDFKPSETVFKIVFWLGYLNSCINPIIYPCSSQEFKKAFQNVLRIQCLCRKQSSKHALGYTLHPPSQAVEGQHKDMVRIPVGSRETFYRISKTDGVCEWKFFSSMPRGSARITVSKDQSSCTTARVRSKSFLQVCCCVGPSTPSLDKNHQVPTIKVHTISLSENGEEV

Glucocorticoid receptor = target: T2, Glucocorticoid receptor (Homo sapiens, UniProt P04150); format: functional; note: assay procedure not described here
T2 sequence (P04150 whole entry): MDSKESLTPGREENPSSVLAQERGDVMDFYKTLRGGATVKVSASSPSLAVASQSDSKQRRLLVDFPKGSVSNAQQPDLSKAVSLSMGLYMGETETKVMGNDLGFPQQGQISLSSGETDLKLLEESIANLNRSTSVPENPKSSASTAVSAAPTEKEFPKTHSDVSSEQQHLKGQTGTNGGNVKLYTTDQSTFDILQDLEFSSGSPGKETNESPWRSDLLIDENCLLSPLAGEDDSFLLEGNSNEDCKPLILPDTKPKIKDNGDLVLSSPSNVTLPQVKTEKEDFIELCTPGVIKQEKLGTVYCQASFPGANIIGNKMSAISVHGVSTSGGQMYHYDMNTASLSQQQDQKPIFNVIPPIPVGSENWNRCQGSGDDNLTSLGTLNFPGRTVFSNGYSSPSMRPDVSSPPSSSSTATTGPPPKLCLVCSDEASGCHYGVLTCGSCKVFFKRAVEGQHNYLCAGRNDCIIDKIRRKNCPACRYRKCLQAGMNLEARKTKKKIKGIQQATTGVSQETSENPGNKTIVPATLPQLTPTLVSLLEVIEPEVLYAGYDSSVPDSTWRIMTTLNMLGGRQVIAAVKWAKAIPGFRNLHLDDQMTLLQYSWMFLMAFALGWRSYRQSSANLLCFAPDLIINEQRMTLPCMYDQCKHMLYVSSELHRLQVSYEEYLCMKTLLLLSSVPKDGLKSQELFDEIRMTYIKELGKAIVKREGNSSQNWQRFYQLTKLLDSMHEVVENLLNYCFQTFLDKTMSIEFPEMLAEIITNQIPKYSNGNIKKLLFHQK

[2] = target: T3, Alpha-2C adrenergic receptor (Homo sapiens, UniProt P18825); format: functional
T3 sequence (P18825 whole entry): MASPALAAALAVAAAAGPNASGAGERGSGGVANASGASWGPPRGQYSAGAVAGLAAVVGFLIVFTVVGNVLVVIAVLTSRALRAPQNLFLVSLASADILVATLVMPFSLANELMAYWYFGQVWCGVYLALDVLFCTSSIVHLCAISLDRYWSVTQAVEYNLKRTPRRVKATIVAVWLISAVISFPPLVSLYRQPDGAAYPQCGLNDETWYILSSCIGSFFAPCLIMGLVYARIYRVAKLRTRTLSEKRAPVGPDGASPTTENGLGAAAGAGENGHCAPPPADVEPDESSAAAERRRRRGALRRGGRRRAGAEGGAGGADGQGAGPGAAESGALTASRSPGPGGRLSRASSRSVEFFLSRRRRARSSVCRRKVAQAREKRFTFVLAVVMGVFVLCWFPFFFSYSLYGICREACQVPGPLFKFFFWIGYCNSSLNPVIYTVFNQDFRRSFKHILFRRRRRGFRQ

[3] = target: T4, Alpha-2A adrenergic receptor (Homo sapiens, UniProt P08913)
T4 sequence (P08913 whole entry): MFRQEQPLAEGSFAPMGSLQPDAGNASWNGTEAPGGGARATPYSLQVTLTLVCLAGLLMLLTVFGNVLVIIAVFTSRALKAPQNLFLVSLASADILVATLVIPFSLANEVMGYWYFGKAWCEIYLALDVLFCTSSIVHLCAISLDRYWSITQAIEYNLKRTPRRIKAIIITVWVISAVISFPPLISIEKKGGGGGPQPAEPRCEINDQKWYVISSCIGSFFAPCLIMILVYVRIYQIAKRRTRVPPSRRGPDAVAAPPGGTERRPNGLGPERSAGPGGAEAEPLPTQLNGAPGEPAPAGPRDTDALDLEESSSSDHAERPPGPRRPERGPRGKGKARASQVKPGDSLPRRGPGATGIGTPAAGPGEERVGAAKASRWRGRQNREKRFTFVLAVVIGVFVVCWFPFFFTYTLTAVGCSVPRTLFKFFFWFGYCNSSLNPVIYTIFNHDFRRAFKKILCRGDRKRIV

[4] = target: Synaptic vesicular amine transporter (Rattus norvegicus, UniProt Q01827); format: functional; note: assay procedure not described here
Chain of Synaptic vesicular amine transporter (Q01827 whole entry): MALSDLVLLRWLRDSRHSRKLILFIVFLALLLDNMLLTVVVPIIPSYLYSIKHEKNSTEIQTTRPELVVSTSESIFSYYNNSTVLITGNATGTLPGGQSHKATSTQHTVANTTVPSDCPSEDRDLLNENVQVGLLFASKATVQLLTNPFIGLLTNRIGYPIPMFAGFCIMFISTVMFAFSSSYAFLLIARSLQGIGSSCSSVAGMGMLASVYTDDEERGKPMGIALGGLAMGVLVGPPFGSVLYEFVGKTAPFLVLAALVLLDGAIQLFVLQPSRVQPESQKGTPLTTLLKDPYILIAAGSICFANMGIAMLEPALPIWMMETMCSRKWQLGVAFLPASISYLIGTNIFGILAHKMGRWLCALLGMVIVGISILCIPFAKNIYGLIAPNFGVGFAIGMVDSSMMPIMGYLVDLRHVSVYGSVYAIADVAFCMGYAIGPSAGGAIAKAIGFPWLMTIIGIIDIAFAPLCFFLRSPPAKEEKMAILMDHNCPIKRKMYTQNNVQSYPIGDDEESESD

[5] = target: Gamma-aminobutyric acid receptor subunit alpha-1/alpha-2/beta-2/gamma-2 (Homo sapiens, UniProt P14867+P47870+P18507+P47869); format: functional, cell-based; note: assay procedure not described here
Chain of Gamma-aminobutyric acid receptor subunit alpha-1/alpha-2/beta-2/gamma-2 (P14867 whole entry): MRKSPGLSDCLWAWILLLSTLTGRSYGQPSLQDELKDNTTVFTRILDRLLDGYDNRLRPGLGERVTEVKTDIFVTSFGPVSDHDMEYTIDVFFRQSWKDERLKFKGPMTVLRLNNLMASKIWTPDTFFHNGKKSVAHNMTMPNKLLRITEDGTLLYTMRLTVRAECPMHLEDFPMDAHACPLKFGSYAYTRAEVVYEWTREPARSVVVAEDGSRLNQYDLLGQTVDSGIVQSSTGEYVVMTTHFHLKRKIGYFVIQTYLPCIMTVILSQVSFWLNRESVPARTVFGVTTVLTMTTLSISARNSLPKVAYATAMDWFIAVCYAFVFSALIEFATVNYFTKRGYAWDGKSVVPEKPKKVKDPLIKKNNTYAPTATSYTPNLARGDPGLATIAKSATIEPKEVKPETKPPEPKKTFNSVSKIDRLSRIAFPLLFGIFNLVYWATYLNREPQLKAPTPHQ
Chain of Gamma-aminobutyric acid receptor subunit alpha-1/alpha-2/beta-2/gamma-2 (P47870 whole entry): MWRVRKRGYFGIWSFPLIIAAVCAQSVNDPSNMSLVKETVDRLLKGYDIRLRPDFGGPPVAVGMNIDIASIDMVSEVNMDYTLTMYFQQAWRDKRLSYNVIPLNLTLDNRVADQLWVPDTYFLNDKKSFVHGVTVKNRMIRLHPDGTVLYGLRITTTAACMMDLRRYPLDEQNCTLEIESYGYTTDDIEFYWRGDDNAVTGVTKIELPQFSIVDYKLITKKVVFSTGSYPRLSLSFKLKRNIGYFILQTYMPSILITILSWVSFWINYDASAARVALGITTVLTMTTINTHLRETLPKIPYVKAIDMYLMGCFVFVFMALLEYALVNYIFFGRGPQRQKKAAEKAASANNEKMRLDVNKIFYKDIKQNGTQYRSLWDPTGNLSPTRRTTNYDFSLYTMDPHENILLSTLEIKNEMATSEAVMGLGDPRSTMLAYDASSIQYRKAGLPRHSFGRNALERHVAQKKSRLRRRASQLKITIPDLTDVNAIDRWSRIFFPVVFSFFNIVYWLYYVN
Chain of Gamma-aminobutyric acid receptor subunit alpha-1/alpha-2/beta-2/gamma-2 (P18507 whole entry): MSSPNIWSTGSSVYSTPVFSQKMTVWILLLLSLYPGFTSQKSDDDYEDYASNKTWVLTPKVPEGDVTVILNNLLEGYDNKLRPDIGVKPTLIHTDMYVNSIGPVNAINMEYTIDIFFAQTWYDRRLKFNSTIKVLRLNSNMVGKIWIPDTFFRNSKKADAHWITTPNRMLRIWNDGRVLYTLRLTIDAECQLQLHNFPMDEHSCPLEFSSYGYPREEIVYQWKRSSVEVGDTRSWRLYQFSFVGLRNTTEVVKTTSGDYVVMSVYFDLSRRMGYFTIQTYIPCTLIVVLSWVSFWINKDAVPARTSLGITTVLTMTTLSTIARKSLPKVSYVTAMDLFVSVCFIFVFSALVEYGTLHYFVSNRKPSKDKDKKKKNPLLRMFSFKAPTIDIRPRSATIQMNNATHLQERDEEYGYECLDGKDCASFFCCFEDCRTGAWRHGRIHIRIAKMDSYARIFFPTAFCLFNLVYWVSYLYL
Chain of Gamma-aminobutyric acid receptor subunit alpha-1/alpha-2/beta-2/gamma-2 (P47869 whole entry): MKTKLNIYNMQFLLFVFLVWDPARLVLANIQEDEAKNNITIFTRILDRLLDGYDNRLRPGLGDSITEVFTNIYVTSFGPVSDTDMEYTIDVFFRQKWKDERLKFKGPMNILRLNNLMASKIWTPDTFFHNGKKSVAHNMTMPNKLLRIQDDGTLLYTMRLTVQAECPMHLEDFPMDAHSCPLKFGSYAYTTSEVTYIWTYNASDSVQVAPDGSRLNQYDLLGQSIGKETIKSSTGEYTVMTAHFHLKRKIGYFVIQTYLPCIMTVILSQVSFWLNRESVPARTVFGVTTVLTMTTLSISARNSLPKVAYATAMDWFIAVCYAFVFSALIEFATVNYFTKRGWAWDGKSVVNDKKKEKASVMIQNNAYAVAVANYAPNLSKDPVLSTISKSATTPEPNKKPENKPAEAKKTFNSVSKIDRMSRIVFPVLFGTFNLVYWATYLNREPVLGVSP

[6] = target: T5, Muscarinic acetylcholine receptor M1 (Homo sapiens, UniProt P11229); note: assay procedure not described here
T5 sequence (P11229 whole entry): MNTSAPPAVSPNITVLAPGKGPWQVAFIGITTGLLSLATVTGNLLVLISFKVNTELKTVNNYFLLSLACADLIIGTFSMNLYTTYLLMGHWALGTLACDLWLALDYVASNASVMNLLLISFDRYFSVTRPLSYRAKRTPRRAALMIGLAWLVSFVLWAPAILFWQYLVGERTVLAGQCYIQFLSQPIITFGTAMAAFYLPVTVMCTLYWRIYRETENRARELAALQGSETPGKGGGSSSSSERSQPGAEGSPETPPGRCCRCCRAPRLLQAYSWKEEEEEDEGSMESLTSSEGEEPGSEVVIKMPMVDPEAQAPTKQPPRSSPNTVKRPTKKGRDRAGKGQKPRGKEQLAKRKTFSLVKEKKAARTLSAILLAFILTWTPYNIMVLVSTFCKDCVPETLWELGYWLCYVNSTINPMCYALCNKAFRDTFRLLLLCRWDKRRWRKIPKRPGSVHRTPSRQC

**Q.** With `NCCCC(O)(P(=O)(O)O)P(=O)(O)O` [ALENDRONIC ACID] as the compound, how does the AC50 [1] read?
**A.** Its AC50 is greater than 30 µM.

**Q.** Which AC50 (Glucocorticoid receptor) does the source give for `COc1cccc2c1C(=O)c1c(O)c3c(c(O)c1C2=O)C[C@@](O)(C(C)=O)C[C@@H]3O[C@H]1C[C@H](N)[C@H](O)[C@H](C)O1` [DAUNORUBICIN] here?
**A.** Its AC50 is greater than 10 µM.

**Q.** Which results are given for `CC(C)CC(N(C)C)C1(c2ccc(Cl)cc2)CCC1` (configuration not stated) [SIBUTRAMINE]?
**A.** AC50 [2]: 0.758 µM; AC50 [3]: 2.14 µM

**Q.** Which AC50 [4] does the source give for `COc1ccc(C(CN(C)C)C2(O)CCCCC2)cc1` (configuration not stated) [VENLAFAXINE] here?
**A.** Its AC50 is greater than 30 µM.

**Q.** How did the AC50 [5] turn out when COLISTIN was run?
**A.** Its AC50 is greater than 30 µM.

**Q.** And the AC50 [6]?
**A.** The AC50 was greater than 30 µM.
